Entries after “also recorded” stand apart in the source; their conditions may differ. Read-outs that look alike come from different tables or passages of the source. Starred links: 1 amine or outer side, 2 acyl side, 3 side chain; linkers in the order of their positions; H or OH if unused. Positions of bridges follow the written chain, without caps; N, C: chain ends. Non-standard residues stand in square brackets, D forms with d. Residues, ends and D or L forms follow the SMILES beside them. ξ: configuration not given here. Pro(cis-4-Trz(4-CH2CH2Ph)) = O=C(O)[C@@H]1C[C@H](n2cc(CCc3ccccc3)nn2)CN1; X4 = O=C([C@@H]1C[C@H](n2cc(C3C4CC5CC(C4)CC3C5)nn2)CN1[*:1])[*:2]; Ile(3ξ) = CCC(C)[C@H](N)C(=O)O; Orn = NCCC[C@H](N)C(=O)O; Dab = NCC[C@H](N)C(=O)O; ξD = NC(CC(=O)O)C(=O)O
Experiments:
HIV-1 gp120 = target: T1, HIV-1 gp120 (Human immunodeficiency virus type 1 group M subtype B, UniProt P35961); format: binding
T1 construct: Expression and Purification of Wild-Type gp120YU-2; made in house; host or cells: HEK 293F
Method: SPR competition binding assays were used to assess the structural elements required for cyclic hexapeptide binding to gp120. […] In an attempt to restore the lost contact, the length of the two linkers was changed (Linker 1 and Linker 2 in FIG. 12).
SPR experiments were performed on a Biacore 3000 optical biosensor (GE Healthcare). All experiments were carried out at 25° C. using standard PBS buffer pH=7.4 with 0.005% surfactant Tween. A CM5 sensor chip was derivatized by standard 1-ethyl-3-(3-dimethylaminopropyl) carbodiimide (EDC)/N-hydroxysuccinimide (NHS) chemistry, and coupling was done through ligand amine groups. Antibody 2B6R (α-human IL5R) was immobilized for negative control surfaces. For competition experiments, soluble four domain CD4 and 17b antibody were immobilized on the surface through standard EDC/NHS chemistry. For kinetic analyses, typically 2000-3000 RUs of protein reagents were immobilized on SPR chips, and analytes were passed over the surface at 50-100 μL/min. Surface regeneration was achieved by a 5 μL injection of 10 mM HCl solution at 100 μL/min. […] Regeneration of the surface was achieved by a single 10 second pulse of 1.3 M NaCl/35 mM NaOH and single 5-second pulse of 10 mM glycine, pH 1.5, for sCD4 and mAb 17b, respectively. All analyses were performed in triplicate.
The inhibition curve was converted into a calibration curve by the use of a fitting function. The fitting was done using the 4-parameter Equation (1) from BIAevaluation software,
The cyclic peptides of the invention were tested against HIV-1 gp120 by SPR competition assays as described elsewhere herein. A mixture of the cyclic peptide/gp120 solutions was passed over SPR chip immobilized with CD4 and 17b separately. The competition assay evaluated the ability of each peptide to inhibit the binding between gp120 and both soluble CD4 and 17b antibody, a surrogate for co-receptor.

HIV-1 Bal.01 pseudovirus = assay: Inhibition of HIV-1 infection against Bal.01 (HOS.T4.R5 cells, luciferase); format: cell-based
HIV-1 JR-FL pseudovirus = assay: Inhibition of HIV-1 infection against JR-FL (HOS.T4.R5 cells, luciferase); format: cell-based

## CC[C@H](C)[C@@H]1NC(=O)[C@H](CC(N)=O)NC(=O)[C@H](CC(N)=O)NC(=O)[C@@H](N)CCC(=O)NCCCC[C@@H](C(N)=O)NC(=O)[C@H](Cc2c[nH]c3ccccc23)NC(=O)[C@@H]2C[C@H](n3cc(CCc4ccccc4)nn3)CN2C1=O [AAR026, 2,2′-((3S,6S,15S,18S,21S,24S,28S,29aS)-3-((1H-indol-3-yl)methyl)-15-amino-24-((S)-sec-butyl)-6-carbamoyl-1,4,12,16,19,22,25-heptaoxo-28-(4-phenethyl-1H-1,2,3-triazol-1-yl)octacosahydro-1H-pyrrolo[2,1-f][1,4,7,10,13,16,22]heptaazacycloheptacosine-18,21-diyl)diacetamide] (H-ENNI[Pro(cis-4-Trz(4-CH2CH2Ph))]WK-NH2; lactam 1-7)
HIV-1 gp120; SPR competition
  Dual receptor site (CD4 and 17b) inhibition of gp120, in words: retained the dual receptor site inhibitory signature of linear PTs; also recorded: dual inhibitors

## CCC(C)[C@@H]1NC(=O)[C@H](CC(N)=O)NC(=O)[C@@H](N)CC(=O)NCCCC[C@@H](C(N)=O)NC(=O)[C@H](Cc2c[nH]c3ccccc23)NC(=O)[C@@H]2C[C@H](n3cc(C4C5CC6CC(C5)CC4C6)nn3)CN2C1=O (stereo partly drawn) [AAR029F, (3S,6S,14S,17S,20S,24S,25aS)-3-((1H-indol-3-yl)methyl)-24-(4-((1R,3S,5S,7S)-adamantan-2-yl)-1H-1,2,3-triazol-1-yl)-14-amino-17-(2-amino-2-oxoethyl)-20-(sec-butyl)-1,4,12,15,18,21-hexaoxotetracosahydro-1H-pyrrolo[2,1-f][1,4,7,10,13,18]hexaazacyclotricosine-6-carboxamide] (H-DN[Ile(3ξ)][X4]WK-NH2; lactam 1-6)
HIV-1 gp120; SPR competition
  Dual receptor site (CD4 and 17b) inhibition of gp120, in words: dual inhibitors

## CC[C@H](C)[C@@H]1NC(=O)[C@H](CC(N)=O)NC(=O)[C@@H](N)CCC(=O)NCC[C@@H](C(N)=O)NC(=O)[C@H](Cc2c[nH]c3ccccc23)NC(=O)[C@@H]2C[C@H](n3cc(CCc4ccccc4)nn3)CN2C1=O [AAR030, (3S,6S,13S,16S,19S,23S,24aS)-3-((1H-indol-3-yl)methyl)-13-amino-16-(2-amino-2-oxoethyl)-19-((S)-sec-butyl)-1,4,10,14,17,20-hexaoxo-23-(4-phenethyl-1H-1,2,3-triazol-1-yl)tetracosahydropyrrolo[1,2-g][1,4,7,10,13,17]hexaazacyclodocosine-6-carboxamide] (H-ENI[Pro(cis-4-Trz(4-CH2CH2Ph))]W[Dab]-NH2; lactam 1-6)
HIV-1 gp120; SPR competition
  Dual receptor site (CD4 and 17b) inhibition of gp120, in words: inactive

## CC[C@H](C)[C@@H]1NC(=O)[C@H](CC(N)=O)NC(=O)[C@@H](N)CC(=O)NCCC[C@@H](C(N)=O)NC(=O)[C@H](Cc2c[nH]c3ccccc23)NC(=O)[C@@H]2C[C@H](n3cc(CCc4ccccc4)nn3)CN2C1=O [AAR031, (3S,6S,13S,16S,19S,23S,24aS)-3-((1H-indol-3-yl)methyl)-13-amino-16-(2-amino-2-oxoethyl)-19-((S)-sec-butyl)-1,4,11,14,17,20-hexaoxo-23-(4-phenethyl-1H-1,2,3-triazol-1-yl)tetracosahydropyrrolo[2,1-f][1,4,7,10,13,18]hexaazacyclodocosine-6-carboxamide] (H-DNI[Pro(cis-4-Trz(4-CH2CH2Ph))]W[Orn]-NH2; lactam 1-6)
HIV-1 gp120; SPR competition
  Dual receptor site (CD4 and 17b) inhibition of gp120, in words: dual inhibitors
  IC50 value in words: micro molar

## CC[C@H](C)[C@@H]1NC(=O)[C@H](CC(N)=O)NC(=O)C(N)CC(=O)NCC[C@@H](C(N)=O)NC(=O)[C@H](Cc2c[nH]c3ccccc23)NC(=O)[C@@H]2C[C@H](n3cc(CCc4ccccc4)nn3)CN2C1=O (stereo partly drawn) [AAR032, (3S,6S,15S,18S,22S,23aS)-3-((1H-indol-3-yl)methyl)-12-amino-15-(2-amino-2-oxoethyl)-18-((S)-sec-butyl)-1,4,10,13,16,19-hexaoxo-22-(4-phenethyl-1H-1,2,3-triazol-1-yl)docosahydro-1H-pyrrolo[1,2-g][1,4,7,10,13,17]hexaazacyclohenicosine-6-carboxamide] (H-[ξD]NI[Pro(cis-4-Trz(4-CH2CH2Ph))]W[Dab]-NH2; lactam 1-6)
HIV-1 gp120; SPR competition
  Dual receptor site (CD4 and 17b) inhibition of gp120, in words: dual inhibitors
HIV-1 gp120; two-carbon Linker 1 (Dab)
  fold improvement vs AAR031: ~10 fold

## (3S,6S,12S,15S,19S,20aS)-3-((1H-indol-3-yl)methyl)-12-amino-15-((S)-sec-butyl)-19-(4-ferrocenyl-1H-1,2,3-triazol-1-yl)-1,4,10,13,16-pentaoxoicosahydropyrrolo [1,2-d][1,4,7,10,14]pentaazacyclooctadecine-6-carboxamide [AAR040]
HIV-1 gp120; SPR competition
  Dual receptor site (CD4 and 17b) inhibition of gp120, in words: dual inhibitors

## (3S,6S,14S,17S,20S,24S,25aS)-3-((1H-indol-3-yl)methyl)-14-amino-17-(2-amino-2-oxoethyl)-20-butyl-24-(4-ferrocenyl-1H-1,2,3-triazol-1-yl)-1,4,12,15,18,21-hexaoxotetracosahydro-1H-pyrrolo[2,1-f][1,4,7,10,13,18]hexaazacyclotricosine-6-carboxamide [AAR036]
HIV-1 gp120; SPR competition
  Dual receptor site (CD4 and 17b) inhibition of gp120, in words: dual inhibitors

## (3S,6S,14S,17S,20S,24S,25aS)-3-((1H-indol-3-yl)methyl)-14-amino-17-(2-amino-2-oxoethyl)-20-cyclohexyl-24-(4-ferrocenyl-1H-1,2,3-triazol-1-yl)-1,4,12,15,18,21-hexaoxotetracosahydro-1H-pyrrolo[2,1-f][1,4,7,10,13,18]hexaazacyclotricosine-6-carboxamide [AAR029b-Chg]
HIV-1 Bal.01 pseudovirus
  Infection inhibition against Bal.01, in words: inhibiting activity

## (3S,6S,14S,17S,20S,24S,25aS)-3-((1H-indol-3-yl)methyl)-14-amino-17-(2-amino-2-oxoethyl)-20-cyclopropyl-24-(4-ferrocenyl-1H-1,2,3-triazol-1-yl)-1,4,12,15,18,21-hexaoxotetracosahydro-1H-pyrrolo[2,1-f][1,4,7,10,13,18]hexaazacyclotricosine-6-carboxamide [AAR042]
HIV-1 gp120; SPR competition
  Dual receptor site (CD4 and 17b) inhibition of gp120, in words: dual inhibitors

## (3S,6S,14S,17S,20S,24S,25aS)-14-amino-17-(2-amino-2-oxoethyl)-3-(benzo[b]thiophen-3-ylmethyl)-20-(sec-butyl)-24-(4ferocenyl-1H-1,2,3-triazol-1-yl)-1,4,12,15,18,21-hexaoxotetracosahydro-1H-pyrrolo[2,1-f][1,4,7,10,13,18]hexaazacyclotricosine-6-carboxamide [AAR029E]
HIV-1 gp120
  Dual receptor site (CD4 and 17b) inhibition of gp120, in words: dual inhibitors
HIV-1 Bal.01 pseudovirus
  Infection inhibition against Bal.01, in words: inhibiting activity

## (3S,6S,15S,18S,21S,25S,26aS)-3-((1H-indol-3-yl)methyl)-18-(2-amino-2-oxoethyl)-15-((2S,3S)-2-amino-3-methylpentanamido)-21-((S)-sec-butyl)-25-(4-ferrocenyl-1H-1,2,3-triazol-1-yl)-1,4,12,16,19,22-hexaoxohexacosahydropyrrolo[2,1-f][1,4,7,10,13,19]hexaazacyclotetracosine-6-carboxamide [AAR024b]
HIV-1 gp120; SPR competition
  Dual receptor site (CD4 and 17b) inhibition of gp120, in words: enhanced dual receptor site antagonizing activities; also recorded: dual inhibitors
HIV-1 Bal.01 pseudovirus
  Infection inhibition against Bal.01, in words: inhibiting activity
HIV-1 JR-FL pseudovirus
  Infection inhibition against JR-FL, in words: inhibiting activity
